Measured values from patent US12673954B2 (BRISTOL-MYERS SQUIBB COMPANY, priority 2021, dated 2026).
Like-named read-outs stand apart in the source and are kept apart here.

Tests used:
[1] = system: IRF pathway, THP1-Dual™ cells; test: STING reporter assay in THP1-Dual cells, IRF pathway (Lucia luciferase, QUANTI-Luc); type: cell-based, human; settings: read-out: IRF (EC50 μM)
Summary of the method: (§1)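 Activation normalised between DMSO-only baseline and 100 μM cGAMP maximum, after 20 h compound exposure (starting at 100 μM final) at 37° C, 5% CO2. Supernatant SEAP (QUANTI-Blue, OD620) reports NF-κB; secreted luciferase (QUANTI-Luc, RLU at 5 min) reports IRF.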

[2] = system: NF-κB pathway, THP1-Dual™ cells; test: STING reporter assay in THP1-Dual cells, NF-κB pathway (SEAP, QUANTI-Blue); type: cell-based, human; settings: read-out: NFkB (EC50 μM)
Summary of the method: as §1

[3] = Homo sapiens, THP1-Dual, 20 h, THP1-Dual cells, 10% human plasma, 20 hours, Lucia luciferase, 100% activation = 100 μM cGAMP
[4] = Homo sapiens, THP1-Dual, 20 h, THP1-Dual cells, 10% human plasma, 20 hours, SEAP, 100% activation = 100 μM cGAMP
[5] = THP1-Dual cells, 10% human plasma, 20 hours, Lucia luciferase, 100% activation = 100 μM cGAMP
[6] = THP1-Dual cells, 10% human plasma, 20 hours, SEAP, 100% activation = 100 μM cGAMP

Row | EC50 [1, 3] [µM] | EC50 [2, 4] [µM] | Structure (SMILES) | further results
1 | 35 | 25 | Cc1cc(CC(=O)O[C@H](C)C(F)(F)F)c2oc(CNC(=O)c3cnn4cccnc34)cc2c1 [EXAMPLE 279, (R)-1,1,1-Trifluoropropan-2-yl 2-(5-methyl-2-((pyrazolo[1,5-a]pyrimidine-3-carboxamido)methyl)benzofuran-7-yl)acetate] | –
2 | 0.58 | 0.56 | Cc1cc(C(=O)SCC(F)(F)F)c2oc(CNC(=O)c3cnn4cccnc34)cc2c1 [EXAMPLE 389, S-(2,2,2-Trifluoroethyl) 5-methyl-2-((pyrazolo[1,5-a]pyrimidine-3-carboxamido)methyl)benzofuran-7-carbothioate] | –
3 | 48 | 49 | COC(=O)Cc1cccc2cc(CNC(=O)c3cnn4cccnc34)oc12 [EXAMPLE 20, Methyl 2-(2-((pyrazolo[1,5-a]pyrimidine-3-carboxamido)methyl)benzofuran-7-yl)acetate] | –
4 | 96 | 98 | COC(=O)c1cccc2cc(CN3Cc4cccnc4C3=O)oc12 [EXAMPLE 1, Methyl 2-((7-oxo-5,7-dihydro-6H-pyrrolo[3,4-b]pyridin-6-yl)methyl)benzofuran-7-carboxylate] | –
5 | 0.95 | 0.82 | CCOC(=O)OC(C)OC(=O)c1cc(Cl)cc2cc(CNC(=O)c3cnn4cccnc34)oc12 (racemic) [EXAMPLE 261, 1-((Ethoxycarbonyl)oxy)ethyl 5-chloro-2-((pyrazolo[1,5-a]pyrimidine-3-carboxamido)methyl)benzofuran-7-carboxylate] | –
6 | 3.9 | 4.4 | COC(=O)c1cc(F)c(F)c2cc(CN3CCc4ccncc4C3=O)oc12 [EXAMPLE 125, Methyl 4,5-difluoro-2-((1-oxo-3,4-dihydro-2,7-naphthyridin-2(1H)-yl)methyl)benzofuran-7-carboxylate] | –
7 | 87 | > 100 | Cc1cc(C(=O)O)c2oc(CNC(=O)c3cnn4cc(C)cnc34)c(Cl)c2c1 [EXAMPLE 177, 3-Chloro-5-methyl-2-((6-methylpyrazolo[1,5-a]pyrimidine-3-carboxamido)methyl)benzofuran-7-carboxylic acid] | –
8 | 3.1 | 3.6 | COC(=O)c1ccc(C)c2cc(CN3CCc4ccncc4C3=O)oc12 [EXAMPLE 28, Methyl 4-methyl-2-((1-oxo-3,4-dihydro-2,7-naphthyridin-2(1H)-yl)methyl)benzofuran-7-carboxylate] | –
9 | 51 | 92 | COC(=O)c1cccc2cc(CN3Cc4c(F)cncc4C3=O)oc12 [EXAMPLE 3, Methyl 2-((7-fluoro-3-oxo-1,3-dihydro-2H-pyrrolo[3,4-c]pyridin-2-yl)methyl)benzofuran-7-carboxylate] | –
10 | 42 | 83 | Cc1ccnc2c(C(=O)NCc3cc4cccc(C(=O)OCC(F)(F)F)c4o3)cnn12 [EXAMPLE 221, 2,2,2-Trifluoroethyl 2-((7-methylpyrazolo[1,5-a]pyrimidine-3-carboxamido)methyl)benzofuran-7-carboxylate] | –
11 | 37 | 48 | COC(=O)c1cc(Br)cc2cc(CN3Cc4ncncc4C3=O)oc12 [Example 83, Methyl 5-bromo-2-((5-oxo-5,7-dihydro-6H-pyrrolo[3,4-d]pyrimidin-6-yl)methyl)benzofuran-7-carboxylate] | –
12 | 0.21 | 0.19 | COC(=O)c1cc(C)cc2cc(CNC(=O)c3cnn4cccnc34)oc12 [Example 89, Methyl 5-methyl-2-((pyrazolo[1,5-a]pyrimidine-3-carboxamido)methyl)benzofuran-7-carboxylate] | –
13 | – | – | CC(OC(=O)c1cc(Cl)cc2cc(CN3CCc4ccncc4C3=O)oc12)C(F)(F)F (centres unmarked) [EXAMPLE 338, 1,1,1-Trifluoropropan-2-yl 5-chloro-2-((1-oxo-3,4-dihydro-2,7-naphthyridin-2(1H)-yl)methyl)benzofuran-7-carboxylate] | EC50 [1, 5]: 46 µM; EC50 [2, 6]: 48 µM
14 | 9.6 | 6.3 | C[C@@H](OC(=O)c1c(F)c(F)cc2cc(CNC(=O)c3cnn4cccnc34)oc12)C(F)(F)F [EXAMPLE 284, (R)-1,1,1-Trifluoropropan-2-yl 5,6-difluoro-2-((pyrazolo[1,5-a]pyrimidine-3-carboxamido)methyl)benzofuran-7-carboxylate] | –
15 | 32 | 41 | O=C(OCC(F)(F)F)c1cccc2cc(CN3Cc4ccncc4C3=O)oc12 [EXAMPLE 204, 2,2,2-Trifluoroethyl 2-((3-oxo-1,3-dihydro-2H-pyrrolo[3,4-c]pyridin-2-yl)methyl)benzofuran-7-carboxylate] | –
16 | 2.3 | 2.3 | N#CC1CC(OC(=O)c2cc(Cl)cc3cc(CNC(=O)c4cnn5cccnc45)oc23)C1 (centres unmarked) [EXAMPLE 241, 3-Cyanocyclobutyl 5-chloro-2-((pyrazolo[1,5-a]pyrimidine-3-carboxamido)methyl)benzofuran-7-carboxylate] | –

Row | EC50 [1, 3] [µM] | EC50 [2, 4] [µM] | Structure (SMILES) | further results
17 | 0.2 | 0.26 | COC(=O)c1cc(Cl)cc2c(Cl)c(CNC(=O)c3cnn4cccnc34)oc12 [EXAMPLE 112, Methyl 3,5-dichloro-2-((pyrazolo[1,5-a]pyrimidine-3-carboxamido)methyl)benzofuran-7-carboxylate] | –
18 | 2 | 1.8 | COC(=O)c1ccc(F)c2cc(CNC(=O)c3cnn4cccnc34)oc12 [EXAMPLE 23, methyl 4-fluoro-2-((pyrazolo[1,5-a]pyrimidine-3-carboxamido)methyl)-benzofuran-7-carboxylate] | –
19 | 1.3 | 1.1 | CSC(=O)c1cc(F)cc2cc(CNC(=O)c3cnn4cccnc34)oc12 [EXAMPLE 382, S-Methyl 5-fluoro-2-((pyrazolo[1,5-a]pyrimidine-3-carboxamido)methyl)benzofuran-7-carbothioate] | –
20 | 1.7 | 2 | O=C(OC1COC1)c1cc(F)cc2cc(CNC(=O)c3cnn4cccnc34)oc12 [EXAMPLE 233, Oxetan-3-yl 5-fluoro-2-((pyrazolo[1,5-a]pyrimidine-3-carboxamido)methyl)benzofuran-7-carboxylate] | –
21 | 1.7 | 2 | COC(=O)c1cc(C)cc2cc(C(C)NC(=O)c3cnn4cccnc34)oc12 (racemic) [Example 96, Methyl 5-methyl-2-(1-(pyrazolo[1,5-a]pyrimidine-3-carboxamido)ethyl)benzofuran-7-carboxylate (racemic)] | –
22 | – | – | O=C(OCC(F)(F)C(F)(F)C(F)(F)CO)c1cc(Cl)cc2cc(CNC(=O)c3cnn4cccnc34)oc12 [EXAMPLE 253, 2,2,3,3,4,4-Hexafluoro-5-hydroxypentyl 5-chloro-2-((pyrazolo[1,5-a]pyrimidine-3-carboxamido)methyl)benzofuran-7-carboxylate] | EC50 ([1]; Homo sapiens, THP1-Dual, 20 h): 0.96 µM; EC50 ([2]; Homo sapiens, THP1-Dual, 20 h): 0.93 µM
23 | 5.5 | 5.8 | COC(=O)c1cc(C)cc2cc(CN3CCc4ccncc4C3=O)oc12 [Example 87, Methyl 5-methyl-2-((1-oxo-3,4-dihydro-2,7-naphthyridin-2(1H)-yl)methyl)benzofuran-7-carboxylate] | –
24 | 18 | 19 | O=C(OC(C(F)(F)F)C(F)(F)F)c1cccc2cc(CN3CCc4ccncc4C3=O)oc12 [EXAMPLE 209] | –
25 | – | – | O=C(OC1CC(F)(F)C1(F)F)c1cc(F)cc2cc(CNC(=O)c3cnn4cccnc34)oc12 (single isomer, unassigned) [EXAMPLE 322, 2,2,3,3-Tetrafluorocyclobutyl 5-fluoro-2-((pyrazolo[1,5-a]pyrimidine-3-carboxamido)methyl)benzofuran-7-carboxylate] | EC50 [1, 5]: 2.2 µM; EC50 [2, 6]: 3.3 µM
26 | 0.93 | 0.95 | O=C(OCC(F)(F)F)c1cc(F)cc2cc(CNC(=O)c3cnc4cccnn34)oc12 [EXAMPLE 230, 2,2,2-Trifluoroethyl 5-fluoro-2-((imidazo[1,2-b]pyridazine-3-carboxamido)methyl)benzofuran-7-carboxylate] | –
27 | 22 | 27 | COC(=O)c1cc(Cl)cc2cc(CNC(=O)c3cc(N)ccn3)oc12 [Example 53, Methyl 2-((4-aminopicolinamido)methyl)-5-chlorobenzofuran-7-carboxylate] | –
28 | 2.7 | 2.5 | O=C(OCC(F)(F)F)c1c(F)ccc2cc(CNC(=O)c3cnn4cccnc34)oc12 [EXAMPLE 286, 2,2,2-Trifluoroethyl 6-fluoro-2-((pyrazolo[1,5-a]pyrimidine-3-carboxamido)methyl)benzofuran-7-carboxylate] | –
29 | 0.3 | 0.37 | COC(=O)c1cc(C)cc2c(Cl)c(CNC(=O)c3cncc4cccnc34)oc12 [EXAMPLE 118, methyl 2-((1,6-naphthyridine-8-carboxamido)methyl)-3-chloro-5-methylbenzofuran-7-carboxylate] | –
30 | 2.6 | 2.3 | Cc1cc(C(=O)OCC(F)(F)F)c2oc(Cn3ccc4ccncc4c3=O)cc2c1 [EXAMPLE 375, 2,2,2-Trifluoroethyl 5-methyl-2-((1-oxo-2,7-naphthyridin-2(1H)-yl)methyl) benzofuran-7-carboxylate] | –
31 | 3.2 | 3 | CSC(=O)c1cc(F)cc2cc(CNC(=O)c3cnccn3)oc12 [EXAMPLE 384, S-Methyl 5-fluoro-2-((pyrazine-2-carboxamido)methyl)benzofuran-7-carbothioate] | –
